The subject of the assay is BDF1 mice, Lymphoma 8 ip, survival T/C. The assay is described as follows: NCI In Vivo Anticancer Drug Screen. Data for tumor model Lymphoma 8 (intraperitoneal) in B6D2F1 (BDF1) mice. The note with it: higher = longer survival. How it is done:
The antitumor activity of compounds was measured in mice bearing transplantable tumors. Survival or tumor size were measured and the results are expressed as the measurement made in the treated group (T) divided by the measurement made in the vehicle treated control group (C). The tumor model used in this assay is Lymphoma 8 (intraperitoneal) in B6D2F1 (BDF1) mice

The mark [1] stands for this setting: endpoint: survival time, mean or median, dose: 50.0 mg/kg/injection, schedule: Q01DX010 (ip), vehicle: saline.
Where [2] appears, read: endpoint: survival time, mean or median, dose: 100.0 mg/kg/injection, schedule: Q01DX010 (ip), vehicle: saline.
Where [3] appears, read: endpoint: survival time, mean or median, dose: 15.0 mg/kg/injection, schedule: Q01DX010 (ip), vehicle: saline.
[4] abbreviates: endpoint: survival time, mean or median, dose: 30.0 mg/kg/injection, schedule: Q01DX010 (ip), vehicle: saline.
The mark [5] stands for this setting: endpoint: survival time, mean or median, dose: 60.0 mg/kg/injection, schedule: Q01DX010 (ip), vehicle: saline.
Where [6] appears, read: endpoint: survival time, mean or median, dose: 12.5 mg/kg/injection, schedule: Q01DX010 (ip), vehicle: saline.
Setting [7] is: endpoint: survival time, mean or median, dose: 25.0 mg/kg/injection, schedule: Q01DX010 (ip), vehicle: saline.
[8] abbreviates: endpoint: survival time, mean or median, dose: 5.0 mg/kg/injection, schedule: Q01DX010 (ip), vehicle: saline.
Where [9] appears, read: endpoint: survival time, mean or median, dose: 20.0 mg/kg/injection, schedule: Q01DX010 (ip), vehicle: saline.

Several values for one entry are separate records, joined by “and”; a condition that tells them apart may be missing. Identical values can stand only once. Inconclusive results and toxic doses are left out.

In the case of `COc1ccc(C2NCCS2)cc1` (configuration not stated), the T/C is, setting by setting: under setting [1], 103 % of control; under setting [2], 100 % of control; (endpoint: survival time, mean or median, dose: 200.0 mg/kg/injection, schedule: Q01DX010 (ip), vehicle: saline) 106 % of control; (endpoint: survival time, mean or median, dose: 400.0 mg/kg/injection, schedule: Q01DX010 (ip), vehicle: saline) 100 % of control.

For `N[C@H](C(=O)O)[C@@H]1CC(Cl)=NO1`, the T/C reads like this: (endpoint: median survival time, dose: 0.38 mg/kg/injection, schedule: Q01DX009 (ip), vehicle: saline) 92 % of control; (endpoint: median survival time, dose: 0.75 mg/kg/injection, schedule: Q01DX009 (ip), vehicle: saline) 78 % of control; (endpoint: median survival time, dose: 1.5 mg/kg/injection, schedule: Q01DX009 (ip), vehicle: saline) 69 % of control; (endpoint: median survival time, dose: 3.0 mg/kg/injection, schedule: Q01DX009 (ip), vehicle: saline) 74 % of control.

On to `CS(=O)(=O)OCCCl`, for which the T/C reads like this: (endpoint: survival time, mean or median, dose: 9.4 mg/kg/injection, schedule: Q01DX010 (ip), vehicle: saline) 107 % of control; (endpoint: survival time, mean or median, dose: 18.8 mg/kg/injection, schedule: Q01DX010 (ip), vehicle: saline) 91 % of control and 96 % of control; (endpoint: survival time, mean or median, dose: 37.5 mg/kg/injection, schedule: Q01DX010 (ip), vehicle: saline) 91 % of control and 100 % of control; (endpoint: survival time, mean or median, dose: 75.0 mg/kg/injection, schedule: Q01DX010 (ip), vehicle: saline) 91 % of control and 96 % of control.

On to `Clc1ncnc2nc[nH]c12`, for which the T/C (endpoint: survival time, mean or median, dose: 7.5 mg/kg/injection, schedule: Q01DX010 (ip), vehicle: saline) was 100 % of control; the T/C under setting [3] is 100 % of control; the T/C under setting [4] was 110 % of control; the T/C under setting [5] is 100 % of control.

For the compound `CN(Cc1cnc2nc(N)nc(N)c2n1)c1ccc(C(=O)N[C@@H](CCC(=O)O)C(=O)O)cc1`, the T/C (endpoint: median survival time, dose: 1.0 mg/kg/injection, schedule: Q01DX009 (ip), vehicle: sodium bicarbonate) is 118 % of control and the T/C (endpoint: median survival time, dose: 2.0 mg/kg/injection, schedule: Q01DX009 (ip), vehicle: sodium bicarbonate) is 93 % of control.

Turning to `CC(C)CNS(=O)(=O)c1ncnc2nc[nH]c12`, the T/C (endpoint: survival time, mean or median, dose: 18.8 mg/kg/injection, schedule: Q01DX015 (ip), vehicle: carboxymethylcellulose (CMC)) was 114 % of control; the T/C (endpoint: survival time, mean or median, dose: 37.5 mg/kg/injection, schedule: Q01DX015 (ip), vehicle: carboxymethylcellulose (CMC)) was 99 % of control; the T/C (endpoint: survival time, mean or median, dose: 75.0 mg/kg/injection, schedule: Q01DX015 (ip), vehicle: carboxymethylcellulose (CMC)) was 96 % of control.

`CS(=O)(=O)OCCC(=O)N1CCN(C(=O)CCOS(C)(=O)=O)CC1`: the T/C by setting is: under setting [6], 116 % of control; under setting [7], 123 % of control; under setting [1], 156 % of control; under setting [2], 203 % of control.

Take `O=c1[nH]cc(F)c(=O)[nH]1`: the T/C is 155 % of control (endpoint: median survival time, dose: 28.8 mg/kg/injection, schedule: Q04DX003 (ip), vehicle: saline); 277 % of control (endpoint: median survival time, dose: 48.0 mg/kg/injection, schedule: Q04DX003 (ip), vehicle: saline); 331 % of control (endpoint: median survival time, dose: 80.0 mg/kg/injection, schedule: Q04DX003 (ip), vehicle: saline); 108 % of control and 114 % of control under setting [8]; 153 % of control and 158 % of control under setting [9].

With `NC(=O)c1cn(C2OC(CO)C(O)C2O)c2ncnc(N)c12` (configuration not stated), the T/C is, setting by setting: (endpoint: survival time, mean or median, dose: 0.5 mg/kg/injection, schedule: Q01DX015 (ip), vehicle: carboxymethylcellulose (CMC)) 106 % of control; (endpoint: survival time, mean or median, dose: 1.0 mg/kg/injection, schedule: Q01DX015 (ip), vehicle: carboxymethylcellulose (CMC)) 116 % of control; (endpoint: survival time, mean or median, dose: 2.0 mg/kg/injection, schedule: Q01DX015 (ip), vehicle: carboxymethylcellulose (CMC)) 94 % of control.

`CC(Cl)CN(Cc1cc(O)c(CN(CC(C)Cl)CC(C)Cl)cc1O)CC(C)Cl` (configuration not stated): the T/C (endpoint: survival time, mean or median, dose: 62.5 mg/kg/injection, schedule: Q01DX015 (ip), vehicle: carboxymethylcellulose (CMC)) is 100 % of control; the T/C (endpoint: survival time, mean or median, dose: 125.0 mg/kg/injection, schedule: Q01DX015 (ip), vehicle: carboxymethylcellulose (CMC)) is 95 % of control; the T/C (endpoint: survival time, mean or median, dose: 250.0 mg/kg/injection, schedule: Q01DX015 (ip), vehicle: carboxymethylcellulose (CMC)) was 94 % of control; the T/C (endpoint: survival time, mean or median, dose: 500.0 mg/kg/injection, schedule: Q01DX015 (ip), vehicle: carboxymethylcellulose (CMC)) was 88 % of control and 91 % of control; the T/C (endpoint: survival time, mean or median, dose: 750.0 mg/kg/injection, schedule: Q01DX015 (ip), vehicle: carboxymethylcellulose (CMC)) was 90 % of control; the T/C (endpoint: survival time, mean or median, dose: 1000.0 mg/kg/injection, schedule: Q01DX015 (ip), vehicle: carboxymethylcellulose (CMC)) is 90 % of control.

Turning to `NC(=O)c1[nH]nc(C2OC(CO)C(O)C2O)c1O` (configuration not stated), the T/C is 100 % of control (endpoint: median survival time, dose: 1.56 mg/kg/injection, schedule: Q04DX003 (ip), vehicle: saline); 103 % of control (endpoint: median survival time, dose: 2.59 mg/kg/injection, schedule: Q04DX003 (ip), vehicle: saline); 103 % of control (endpoint: median survival time, dose: 4.32 mg/kg/injection, schedule: Q04DX003 (ip), vehicle: saline); 104 % of control (endpoint: median survival time, dose: 7.2 mg/kg/injection, schedule: Q04DX003 (ip), vehicle: saline); 122 % of control (endpoint: median survival time, dose: 12.0 mg/kg/injection, schedule: Q04DX003 (ip), vehicle: saline); 111 % of control (endpoint: median survival time, dose: 20.0 mg/kg/injection, schedule: Q04DX003 (ip), vehicle: saline).

In the case of `O=c1cn[nH]c(=O)[nH]1`, the T/C was 95 % of control and 100 % of control and 109 % of control (endpoint: survival time, mean or median, dose: 62.5 mg/kg/injection, schedule: Q01DX010 (ip), vehicle: saline); 91 % of control and 95 % of control and 110 % of control (endpoint: survival time, mean or median, dose: 125.0 mg/kg/injection, schedule: Q01DX010 (ip), vehicle: saline); 90 % of control and 93 % of control and 115 % of control (endpoint: survival time, mean or median, dose: 250.0 mg/kg/injection, schedule: Q01DX010 (ip), vehicle: saline); 100 % of control (2×) and 106 % of control (endpoint: survival time, mean or median, dose: 500.0 mg/kg/injection, schedule: Q01DX010 (ip), vehicle: saline).

As to `Oc1cc(CN(CCCl)CCCl)c(O)cc1CN(CCCl)CCCl`, the T/C reads like this: (endpoint: survival time, mean or median, dose: 0.63 mg/kg/injection, schedule: Q01DX010 (ip), vehicle: saline) 104 % of control and 107 % of control; (endpoint: survival time, mean or median, dose: 1.25 mg/kg/injection, schedule: Q01DX010 (ip), vehicle: saline) 104 % of control; under setting [8], 103 % of control and 120 % of control.

For the compound `CN(N=O)C(N)=O`, the T/C reads like this: under setting [8], 114 % of control; under setting [9], 110 % of control.

Take `CN(N=O)C(=O)NC(C=O)C(O)C(O)C(O)CO` (configuration not stated): the T/C under setting [6] is 96 % of control; the T/C (endpoint: survival time, mean or median, dose: 25.0 mg/kg/injection, schedule: Q01DX008 (ip), vehicle: saline) is 115 % of control; the T/C under setting [7] was 100 % of control; the T/C (endpoint: survival time, mean or median, dose: 50.0 mg/kg/injection, schedule: Q01DX008 (ip), vehicle: saline) is 111 % of control; the T/C under setting [1] is 121 % of control; the T/C (endpoint: survival time, mean or median, dose: 100.0 mg/kg/injection, schedule: Q01DX008 (ip), vehicle: saline) was 115 % of control. Also, the T/C under setting [2] is 121 % of control.

As to `C[n+]1c2ccccc2nc2c(N)cc(N)cc21`, the T/C (endpoint: survival time, mean or median, dose: 8.0 mg/kg/injection, schedule: Q01DX010 (ip), vehicle: saline) was 121 % of control; the T/C (endpoint: survival time, mean or median, dose: 12.0 mg/kg/injection, schedule: Q01DX010 (ip), vehicle: saline) is 117 % of control; the T/C (endpoint: survival time, mean or median, dose: 18.0 mg/kg/injection, schedule: Q01DX010 (ip), vehicle: saline) was 107 % of control.

`CCCCN(CCCC)CCCCCN`: the T/C by setting is: (endpoint: survival time, mean or median, dose: 5.0 mg/kg/injection, schedule: Q01DX015 (ip), vehicle: carboxymethylcellulose (CMC)) 99 % of control; (endpoint: survival time, mean or median, dose: 10.0 mg/kg/injection, schedule: Q01DX015 (ip), vehicle: carboxymethylcellulose (CMC)) 101 % of control; (endpoint: survival time, mean or median, dose: 20.0 mg/kg/injection, schedule: Q01DX015 (ip), vehicle: carboxymethylcellulose (CMC)) 104 % of control; (endpoint: survival time, mean or median, dose: 30.0 mg/kg/injection, schedule: Q01DX015 (ip), vehicle: carboxymethylcellulose (CMC)) 99 % of control.

As to `N#CCSc1ncnc2nc[nH]c12`, the T/C is 100 % of control under setting [3]; 95 % of control and 104 % of control under setting [4]; 100 % of control under setting [5]; 100 % of control (endpoint: survival time, mean or median, dose: 120.0 mg/kg/injection, schedule: Q01DX010 (ip), vehicle: saline).

The record behind these values is PubChem BioAssay AID242 (DTP/NCI, 2004).
